Test results reported in PubChem BioAssay AID1919014 (Molecular Pharmacology Branch, DTP, NCI, 2023).

Tested on: NCI-H1341 complex spheroids, percent test/control
Assay: Anticancer human tumor NCI-H1341 cell line growth inhibition [AhR];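 also: spheroids exposed to agents for seven days before readout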
Conditions: for IC50: curve of first compound; for viability, T/C: stronger effect = lower value; active = viability on the fitted dose curve at most 10% of control; inactive = the rest
Method in brief: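 Spheroids combined tumor cells with HUVEC endothelial cells and human MSCs as stroma. AhR antagonists were paired with standard or investigational drugs, each dosed in half-log steps down from near clinical Cmax, or from 10 microM where Cmax was unknown.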

[1] = second compound 0.1 µM, first compound 0.0316 µM
[2] = second compound 0.1 µM, first compound 0.1 µM
[3] = second compound 0.1 µM, first compound 0.316 µM
[4] = second compound 0.1 µM, first compound 1 µM
[5] = second compound 0.1 µM, first compound 3.16 µM
[6] = second compound 0.1 µM, first compound 10 µM
[7] = second compound 0.316 µM, first compound 0.0316 µM
[8] = second compound 0.316 µM, first compound 0.1 µM
[9] = second compound 0.316 µM, first compound 0.316 µM
[10] = second compound 0.316 µM, first compound 1 µM
[11] = second compound 0.316 µM, first compound 3.16 µM
[12] = second compound 0.316 µM, first compound 10 µM
[13] = second compound 1 µM, first compound 0.0316 µM
[14] = second compound 1 µM, first compound 0.1 µM
[15] = second compound 1 µM, first compound 0.316 µM
[16] = second compound 1 µM, first compound 1 µM
[17] = second compound 1 µM, first compound 3.16 µM
[18] = second compound 1 µM, first compound 10 µM
[19] = second compound 3.16 µM, first compound 0.0316 µM
[20] = second compound 3.16 µM, first compound 0.1 µM
[21] = second compound 3.16 µM, first compound 0.316 µM
[22] = second compound 3.16 µM, first compound 1 µM
[23] = second compound 3.16 µM, first compound 3.16 µM
[24] = second compound 3.16 µM, first compound 10 µM
[25] = second compound 10 µM, first compound 0.0316 µM
[26] = second compound 10 µM, first compound 0.1 µM
[27] = second compound 10 µM, first compound 0.316 µM
[28] = second compound 10 µM, first compound 1 µM
[29] = second compound 10 µM, first compound 3.16 µM
[30] = second compound 10 µM, first compound 10 µM

CC1(C)CCC(CN2CCN(c3ccc(C(=O)NS(=O)(=O)c4ccc(NCC5CCOCC5)c([N+](=O)[O-])c4)c(Oc4cnc5[nH]ccc5c4)c3)CC2)=C(c2ccc(Cl)cc2)C1 + Cc1ccccc1N=Nc1ccc(NC(=O)c2ccnn2C)c(C)c1
2260 nM: IC50 (second compound 0.316 µM)
539 nM: IC50 (second compound 3.16 µM)
1990 nM: IC50 (second compound 1 µM)
1970 nM: IC50 (second compound 0.1 µM)
inactive: viability, T/C [1] 96.5% | viability, T/C [2] 86% | viability, T/C [3] 96% | viability, T/C [4] 60.5% | viability, T/C [5] 41.3% | viability, T/C [6] 12.6% | viability, T/C [7] 100% | viability, T/C [8] 82.3% | viability, T/C [9] 94.2% | viability, T/C [10] 78.3% | viability, T/C [11] 38.1% | viability, T/C [12] 14.3% | viability, T/C [13] 80.3% | viability, T/C [14] 70.2% | viability, T/C [15] 84.2% | viability, T/C [16] 72.3% | viability, T/C [17] 34.6% | viability, T/C [18] 14.1% | viability, T/C [19] 80% | viability, T/C [20] 54.4% | viability, T/C [21] 61% | viability, T/C [22] 46.7% | viability, T/C [23] 30.1% | viability, T/C [24] 16.5% | viability, T/C [25] 44.2% | viability, T/C [26] 39.9% | viability, T/C [27] 44.5% | viability, T/C [28] 35.4% | viability, T/C [29] 22% | viability, T/C [30] 12.8%
< 31.6 nM: IC50 (second compound 10 µM)

CCN(c1cc(-c2ccc(CN3CCOCC3)cc2)cc(C(=O)NCc2c(C)cc(C)[nH]c2=O)c1C)C1CCOCC1 + Cc1ccccc1N=Nc1ccc(NC(=O)c2ccnn2C)c(C)c1
> 3000 nM: IC50 (second compound 0.1 µM) | IC50 (second compound 0.316 µM) | IC50 (second compound 1 µM) | IC50 (second compound 3.16 µM) | IC50 (second compound 10 µM)
inactive: viability, T/C (second compound 0.1 µM, first compound 0.00949 µM) 95.8% | viability, T/C (second compound 0.1 µM, first compound 0.03 µM) 85.1% | viability, T/C (second compound 0.1 µM, first compound 0.0949 µM) 75.5% | viability, T/C (second compound 0.1 µM, first compound 0.3 µM) 104% | viability, T/C (second compound 0.1 µM, first compound 0.949 µM) 90.9% | viability, T/C (second compound 0.1 µM, first compound 3 µM) 107% | viability, T/C (second compound 0.316 µM, first compound 0.00949 µM) 90.2% | viability, T/C (second compound 0.316 µM, first compound 0.03 µM) 103% | viability, T/C (second compound 0.316 µM, first compound 0.0949 µM) 89.6% | viability, T/C (second compound 0.316 µM, first compound 0.3 µM) 87.1% | viability, T/C (second compound 0.316 µM, first compound 0.949 µM) 104% | viability, T/C (second compound 0.316 µM, first compound 3 µM) 73.1% | viability, T/C (second compound 1 µM, first compound 0.00949 µM) 91.6% | viability, T/C (second compound 1 µM, first compound 0.03 µM) 102% | viability, T/C (second compound 1 µM, first compound 0.0949 µM) 94.7% | viability, T/C (second compound 1 µM, first compound 0.3 µM) 90.6% | viability, T/C (second compound 1 µM, first compound 0.949 µM) 79.8% | viability, T/C (second compound 1 µM, first compound 3 µM) 100% | viability, T/C (second compound 3.16 µM, first compound 0.00949 µM) 75.2% | viability, T/C (second compound 3.16 µM, first compound 0.03 µM) 75.1% | viability, T/C (second compound 3.16 µM, first compound 0.0949 µM) 70.6% | viability, T/C (second compound 3.16 µM, first compound 0.3 µM) 71% | viability, T/C (second compound 3.16 µM, first compound 0.949 µM) 73.3% | viability, T/C (second compound 3.16 µM, first compound 3 µM) 60.6% | viability, T/C (second compound 10 µM, first compound 0.00949 µM) 54.9% | viability, T/C (second compound 10 µM, first compound 0.03 µM) 45.6% | viability, T/C (second compound 10 µM, first compound 0.0949 µM) 54.6% | viability, T/C (second compound 10 µM, first compound 0.3 µM) 52.2% | viability, T/C (second compound 10 µM, first compound 0.949 µM) 49.8% | viability, T/C (second compound 10 µM, first compound 3 µM) 66.5%

COc1cc(Nc2ncc3c(n2)-c2ccc(Cl)cc2C(c2c(F)cccc2OC)=NC3)ccc1C(=O)O + Cc1ccccc1N=Nc1ccc(NC(=O)c2ccnn2C)c(C)c1
inactive: viability, T/C [1] 48.9% | viability, T/C [2] 45.1% | viability, T/C [3] 42% | viability, T/C [4] 31.9% | viability, T/C [5] 29.9% | viability, T/C [6] 25.6% | viability, T/C [7] 50.6% | viability, T/C [8] 46.3% | viability, T/C [9] 48.5% | viability, T/C [10] 39.2% | viability, T/C [11] 30% | viability, T/C [12] 25.2% | viability, T/C [13] 56.2% | viability, T/C [14] 55.3% | viability, T/C [15] 48.3% | viability, T/C [16] 40% | viability, T/C [17] 31.4% | viability, T/C [18] 26% | viability, T/C [19] 47.7% | viability, T/C [20] 48.1% | viability, T/C [21] 39.5% | viability, T/C [22] 40.9% | viability, T/C [23] 25.3% | viability, T/C [24] 26.8% | viability, T/C [25] 44% | viability, T/C [26] 43.9% | viability, T/C [27] 37.3% | viability, T/C [28] 38.2% | viability, T/C [29] 27.3% | viability, T/C [30] 28.6%
< 31.6 nM: IC50 (second compound 0.1 µM) | IC50 (second compound 0.316 µM) | IC50 (second compound 3.16 µM) | IC50 (second compound 10 µM)
249 nM: IC50 (second compound 1 µM)

Cn1ncnc1C1c2n[nH]c(=O)c3cc(F)cc(c23)NC1c1ccc(F)cc1 (stereo not given) + Cc1ccccc1N=Nc1ccc(NC(=O)c2ccnn2C)c(C)c1
inactive: viability, T/C (second compound 0.1 µM, first compound 0.000316 µM) 112% | viability, T/C (second compound 0.1 µM, first compound 0.001 µM) 105% | viability, T/C (second compound 0.1 µM, first compound 0.00316 µM) 80.9% | viability, T/C (second compound 0.1 µM, first compound 0.01 µM) 86.1% | viability, T/C [1] 95.2% | viability, T/C [2] 90.1% | viability, T/C (second compound 0.316 µM, first compound 0.000316 µM) 89.9% | viability, T/C (second compound 0.316 µM, first compound 0.001 µM) 103% | viability, T/C (second compound 0.316 µM, first compound 0.00316 µM) 93.6% | viability, T/C (second compound 0.316 µM, first compound 0.01 µM) 101% | viability, T/C [7] 90.9% | viability, T/C [8] 84.5% | viability, T/C (second compound 1 µM, first compound 0.000316 µM) 101% | viability, T/C (second compound 1 µM, first compound 0.001 µM) 94.2% | viability, T/C (second compound 1 µM, first compound 0.00316 µM) 80.2% | viability, T/C (second compound 1 µM, first compound 0.01 µM) 88.8% | viability, T/C [13] 84.9% | viability, T/C [14] 59.6% | viability, T/C (second compound 3.16 µM, first compound 0.000316 µM) 75.6% | viability, T/C (second compound 3.16 µM, first compound 0.001 µM) 72.5% | viability, T/C (second compound 3.16 µM, first compound 0.00316 µM) 83.7% | viability, T/C (second compound 3.16 µM, first compound 0.01 µM) 79% | viability, T/C [19] 70.5% | viability, T/C [20] 54.6% | viability, T/C (second compound 10 µM, first compound 0.000316 µM) 56.3% | viability, T/C (second compound 10 µM, first compound 0.001 µM) 56.5% | viability, T/C (second compound 10 µM, first compound 0.00316 µM) 47.7% | viability, T/C (second compound 10 µM, first compound 0.01 µM) 59.9% | viability, T/C [25] 58.2% | viability, T/C [26] 41.7%
70.1 nM: IC50 (second compound 10 µM)
> 100 nM: IC50 (second compound 0.1 µM) | IC50 (second compound 0.316 µM) | IC50 (second compound 1 µM) | IC50 (second compound 3.16 µM)

NS(=O)(=O)OCC1CC(n2ccc3c(NC4CCc5ccccc54)ncnc32)CC1O (stereo not given) + Cc1ccccc1N=Nc1ccc(NC(=O)c2ccnn2C)c(C)c1
113 nM: IC50 (second compound 0.1 µM)
111 nM: IC50 (second compound 1 µM)
< 31.6 nM: IC50 (second compound 10 µM)
active: viability, T/C [4] 7.98% | viability, T/C [5] 7.35% | viability, T/C [6] 6.54% | viability, T/C [10] 9.99% | viability, T/C [11] 7.77% | viability, T/C [12] 6.89% | viability, T/C [16] 11.4% | viability, T/C [17] 8.79% | viability, T/C [18] 6.95% | viability, T/C [22] 11% | viability, T/C [23] 7.99% | viability, T/C [24] 6.85% | viability, T/C [29] 8.16% | viability, T/C [30] 5.99%
110 nM: IC50 (second compound 3.16 µM)
63.3 nM: IC50 (second compound 0.316 µM)
inactive: viability, T/C [1] 51.6% | viability, T/C [2] 56.5% | viability, T/C [3] 16.4% | viability, T/C [7] 59% | viability, T/C [8] 44.2% | viability, T/C [9] 16.8% | viability, T/C [13] 61.5% | viability, T/C [14] 53.1% | viability, T/C [15] 22.4% | viability, T/C [19] 51.5% | viability, T/C [20] 53.4% | viability, T/C [21] 23.6% | viability, T/C [25] 40.4% | viability, T/C [26] 35.7% | viability, T/C [27] 20.2% | viability, T/C [28] 10.3%
